From article PMC9739815, “Akt/mTOR Targeting Activity of Resveratrol Derivatives in Non-Small Lung Cancer” (Molecules, 2022) come the findings set out here.

Some results are limits rather than exact numbers.

For one data set, the system named is H460 cells. The data set can be described thus: MTT cell viability assay, H460 cells. The settings on record: Homo sapiens, NCI-H460, 24 h, 0–200 µM, read-out: IC50 ± SEM of NSCLC cells, H460. It is filed as cell-based. The procedure: (§1) NSCLC cells were cultured overnight and treated with various concentrations (0–200 µM) of resveratrol derivatives (RD1-RD5) and resveratrol for 24 h, and then cell viability was analyzed by the 3-(4, 5-dimethylthiazolyl-2)-2, 5-diphenyltetrazolium bromide (MTT) assay to evaluate the percentage of cell viability. All of the data were calculated on the basis of the results of three replicated samples. […] The difference of the structure at C-4 was that the hydroxyl group of RD2 was modified to the methoxy group of RD3 and at C-3, the methoxy group of RD2 was changed to the hydroxyl group of RD3. […] Furthermore, resveratrol decreased cell viability in NSCLC cells (A549, H23, and H460) with the IC50 at more than 200 µM which was the same RD3 (Figure 2a–d). This different action on cancer cells as a result of chemical structure modification has provided an insight for the structure–activity relationship that may facilitate the further development of the potent compound from the lead structure of resveratrol derivatives. Cell viability was investigated by MTT colorimetric assay. All cell lines were cultured at the density of 1 × 10^4 cells per well in a 96-well tissue culture plate and incubated in an incubator. After that, cells were treated with various concentrations of RD1-RD5 for 24 h at 37 °C and analyzed by the MTT assay according to the manufacturer’s protocol (Sigma Chemical, St. Louis, MO, USA). In calculating the cell viability by a microplate reader (Anthros, Durham, NC, USA), the measured absorbance of treated cells were divided by the value of untreated cells and are reported as a percentage.

The next data set deals with p-mTOR/mTOR in H23 cells. The experiment in a line: Western blot of p-mTOR/mTOR, H23 cells. The following applies: 12 h. It is filed as cell-based, human. The procedure:
(§2) NSCLC cells (A549 and H23) were treated with RD2 and RD3 (10–100 μM) for 12 h. After which, all cells were collected and the expression levels of Akt, p-Akt, mTOR, and p-mTOR were investigated by Western blot analysis (Figure 5a, Figure 6a, Figure 7a and Figure 8a). […] Immunofluorescence staining of Akt, p-Akt, mTOR, and p-mTOR was performed in RD2 and RD3 treated cells. The results further confirm the effect of RD2 and RD3 on the Akt/mTOR pathway.
(§3) Western blotting was used to detect the presence of specific protein. Cells were seed at a density of 4 × 10^5 cells/well in 6 well plates overnight. Cells were treated with various concentrations RD1-RD5 were treated for 12 h. After treatment, the apoptosis cells were collected by centrifuging media with 1500 rpm for 5 min and aspirating supernatants. Then, cells were washed with cold 1× PBS and incubated with 1X RIPPA 40 µL containing 10× RIPA buffer 100 µL, protease inhibitors (PI) 100 µL, PMSF 10 µL, and Triton × 10 µL for 30 min on ice. BCA protein assay kit from Pierce Biotechnology (Rockford, IL, USA) analyzed protein concentrations. The extracted proteins were separated by 7.5–10% sodium dodecyl sulfate polyacrylamide gel electrophoresis (SDS-PAGE) and transferred to polyvinylidene difluoride membrane (PVDF). Then, the membranes were blocked with 5% non-fat milk powder for 2 h. After that, they were incubated with primary antibody at 4 °C Akt (#9272), phosphorylated Akt (#4060), mTOR (#2983S), and p-mTOR (#5536S) overnight. The membranes were washed with Tris-buffered saline/Tween 20 3 times and incubated with secondary antibodies for 2 h. Finally, the protein bands were detected using chemiluminescence substrate and exposed by Chemiluminescent ImageQuant LAS4000. Protein bands were analyzed using Image J software.
(In general: Immunoblotting shows a protein as a band on a membrane.)

In another data set the test system is A549 cells. The data set can be described thus: MTT cell viability assay, A549 cells. It is filed as cell-based. The following applies: Homo sapiens, 24 h, 0–200 µM, read-out: IC50 ± SEM of NSCLC cells, A549. The procedure:
as §1
A general note: Tetrazolium dyes change colour on reduction, which living cells bring about.

For another data set, the system named is H23 cells. The data set can be described thus: MTT cell viability assay, H23 cells. It is filed as cell-based. The settings on record: Homo sapiens, NCI-H23, 24 h, 0–200 µM, read-out: IC50 ± SEM of NSCLC cells, H23. As to the method:
as §1

For data set [1], the system named is p-mTOR/mTOR in A549 cells. The experiment in a line: Western blot of p-mTOR/mTOR, A549 cells. It is filed as cell-based, human. The settings on record: 12 h. The procedure: as §2, §3
In another data set the test system is p-mTOR in H23 cells. The experiment in a line: Immunofluorescence staining of p-mTOR, H23 cells. It is filed as cell-based, human. The settings on record: 12 h, RD2 effect at 50–100 μM. As to the method:
as §2
Cells were seeded at a density of 1 × 10^4 cells/well in 6-well plates overnight. Cells were treated with various concentrations resveratrol derivatives ([…]) and were treated for 12 h. Then, they were fixed with 4% paraformaldehyde in PBS for 15 min, permeabilized for 5 min with 0.5% Triton-X, and blocked with 0.1% Triton-X in 10% FBD in PBS for 1 h at room temperature. Cells were added to the primary antibody Akt (#9272), phosphorylated Akt (#4060), mTOR (#2983S), and p-mTOR (#5536S). Then, they were incubated at 4 °C overnight. After that, they were incubated with secondary antibody for 1 h and stained with Hoechst 33342 for 30 min at room temperature in a dark place. The images were visualized under a fluorescent microscope (Olympus DP70, Melville, NY, USA) and analyzed by The ImageJ software.

The subject of a further data set is DP cells. The experiment in a line: MTT cell viability assay, normal dermal papilla (DP) cells. It is filed as cell-based. The following applies: 24 h; for effect on cell viability percentages in DP cells: normal human dermal papilla cells; for IC50: Human dermal papilla cell, 0–200 µM, read-out: IC50 ± SEM of DP cells. As to the method: To confirm the selective cytotoxicity of resveratrol derivatives (RD2 and RD3) in cancer cells, resveratrol derivatives (RD2 and RD3) and resveratrol were determined for the cytotoxic profile in normal human cells, dermal papilla (DP).
Cell viability was investigated by MTT colorimetric assay. All cell lines were cultured at the density of 1 × 10^4 cells per well in a 96-well tissue culture plate and incubated in an incubator. After that, cells were treated with various concentrations of RD1-RD5 for 24 h at 37 °C and analyzed by the MTT assay according to the manufacturer’s protocol (Sigma Chemical, St. Louis, MO, USA). In calculating the cell viability by a microplate reader (Anthros, Durham, NC, USA), the measured absorbance of treated cells were divided by the value of untreated cells and are reported as a percentage.

In general, IC50 refers to the concentration needed to halve the response being measured. Consider `COc1cc(CCc2ccc(O)c(OC)c2)ccc1O` [RD2, 4,4′-(ethane-1,2-diyl)bis(2-methoxyphenol)], for which the IC50 is 138 ± 25.6 µM with H460 cells, 109 ± 10.8 µM in the data set with A549 cells, 104 ± 6.08 µM in the data set with H23 cells and > 200 µM in the data set with DP cells. Further, the “p-mTOR/mTOR protein expression levels” value in the data set with p-mTOR/mTOR in H23 cells (100 μM, vs untreated control) is “significant decrease”; in data set [1] (100 μM, vs untreated control) it was “significant decrease”. The p-mTOR signal intensity entry with p-mTOR in H23 cells is “dramatic decrease”. Further, the “effect on cell viability percentages in DP cells” value in the data set on DP cells is on record as “did not significantly affect”.

Consider `COc1ccc(CCc2ccc(O)c(OC)c2)cc1O` [RD3, 4-(3-hydroxy-4-methoxyphenethyl)-2-methoxyphenol], for which the IC50 in the data set on H460 cells, in the data set with A549 cells, in the data set with H23 cells and with DP cells was > 200 µM throughout. The “p-mTOR/mTOR protein expression levels” value (with p-mTOR/mTOR in H23 cells (10–100 μM); in data set [1] (10–100 μM)) was “no effect” each time. Also, the p-mTOR signal intensity result in the data set with p-mTOR in H23 cells is listed as “only minimally affected”. Moreover, the “effect on cell viability percentages in DP cells” value with DP cells is “did not significantly affect”.
